In patent US6723837B1, “Nucleic acid molecule and encoded protein associated with sterol synthesis and metabolism” (Monsanto Technology LLC, priority 1999, dated 2004):

System: wild type yeast LPY9
Test: RNA abundance on yeast ORF array after ketoconazole treatment vs control without ketoconazole
Format: cell-based
Settings: LPY9, 2 hr, vs untreated LPY9
Method: The yeast strain LPY9 (MATa, leu2, Ura3, his3) is grown overnight and inoculated into SD+ hul (histidine, uracil, leucine) media. Aliquots of the culture are treated with ketoconazole (an inhibitor of C-14α demethylase (P45014DM) enzyme) at 10 ug/ml, 50 ug/ml, and 100 ug/ml, corresponding to 10 ppm, 50 ppm, and 100 ppm, respectively. A sample of each is collected at 2, 4, and 6 hours after treatment. Control samples treated with DMSO (dimethyl sulfoxide-solvent for ketoconazole) but not with ketoconazole are also collected. Total RNA from each sample is collected by conventional methods, such as a Zirconium/Silica bead binding and extraction method. The sequence content of each sample is analyzed and compared by hybridizing each of them to a number of yeast ORF sequences immobilized on a Nylon membrane in an array format.
Table 2, below, lists the RNAs in each sample whose abundance is effected by ketoconazole treatment or whose abundance differs between wild type and the double mutant strain. The table also lists the corresponding gene or sequence identifier for those RNAs. The RNAs are ranked by the ratio of either ketocanozole vs. control or mutant vs. control, using the ratio of 50 ppm ketocanozole/control as a basis for comparison.

Structure (SMILES): CC(=O)N1CCN(c2ccc(OCC3COC(Cn4ccnc4)(c4ccc(Cl)cc4Cl)O3)cc2)CC1 (centres unmarked) [ketoconazole]
- K-50/CK expression level ratio: YAL001C (TFC3) (50 micro gram/ml): 0.4743
- K-50/CK expression level ratio: YAL013W (DEP1) (50 micro gram/ml): 5.546
- K-50/CK expression level ratio: YAL048C (50 micro gram/ml): 2.138
- K-50/CK expression level ratio: YAR044W (OSH1) (50 micro gram/ml): 3.625
- K-50/CK expression level ratio: YBL005W (PDR3) (50 micro gram/ml): 4.145
- K-50/CK expression level ratio: YBL008W (HIR1) (50 micro gram/ml): 2.828
- K-50/CK expression level ratio: YBR119W (MUD1) (50 micro gram/ml): 2.405
- K-50/CK expression level ratio: YBR289W (SNF5) (50 micro gram/ml): 2.688
- K-50/CK expression level ratio: YCL037C (SRO9) (50 micro gram/ml): 2.786
- K-50/CK expression level ratio: YCR048W (ARE1) (50 micro gram/ml): 6.104
- K-50/CK expression level ratio: YCR084C (TUP1) (50 micro gram/ml): 2.922
- K-50/CK expression level ratio: YDL088C (ASM4) (50 micro gram/ml): 4.176
- K-50/CK expression level ratio: YDR052C (DBF4) (50 micro gram/ml): 2.404
- K-50/CK expression level ratio: YDR088C (SLU7) (50 micro gram/ml): 2.734
- K-50/CK expression level ratio: YDR211W (GCD6) (50 micro gram/ml): 2.484
- K-50/CK expression level ratio: YDR213W (50 micro gram/ml): 32.14
- K-50/CK expression level ratio: YDR253C (MET32) (50 micro gram/ml): 0.3397
- K-50/CK expression level ratio: YDR264C (AKR1) (50 micro gram/ml): 2.198
- K-50/CK expression level ratio: YDR389W (SAC7) (50 micro gram/ml): 4.561
- K-50/CK expression level ratio: YDR422C (SIP1) (50 micro gram/ml): 2.187
- K-50/CK expression level ratio: YFL054C (50 micro gram/ml): 0.4794
- K-50/CK expression level ratio: YFR009W (GCN20) (50 micro gram/ml): 2.486
- K-50/CK expression level ratio: YFR034C (PHO4) (50 micro gram/ml): 11.22
- K-50/CK expression level ratio: YGL001C (50 micro gram/ml): 2.821
- K-50/CK expression level ratio: YGL014W (50 micro gram/ml): 3.229
- K-50/CK expression level ratio: YGL071W (RCS1) (50 micro gram/ml): 3.696
- K-50/CK expression level ratio: YGL112C (TAF60) (50 micro gram/ml): 2.077
- K-50/CK expression level ratio: YGL192W (IME4) (50 micro gram/ml): 3.17
- K-50/CK expression level ratio: YGR177C (ATF2) (50 micro gram/ml): 11.83
- K-50/CK expression level ratio: YGR270W (YTA7) (50 micro gram/ml): 2.406
- K-50/CK expression level ratio: YHL027W (RIM101) (50 micro gram/ml): 2.103
- K-50/CK expression level ratio: YIL084C (SDS3) (50 micro gram/ml): 5.543
- K-50/CK expression level ratio: YIR017C (MET28) (50 micro gram/ml): 0.3775
- K-50/CK expression level ratio: YJL127C (SPT10) (50 micro gram/ml): 7.839
- K-50/CK expression level ratio: YJR017C (ESS1) (50 micro gram/ml): 3.559
- K-50/CK expression level ratio: YJR019C (TES1) (50 micro gram/ml): 2.83
- K-50/CK expression level ratio: YKR034W (DAL80) (50 micro gram/ml): 5.044
- K-50/CK expression level ratio: YLR098C (CHA4) (50 micro gram/ml): 4.756
- K-50/CK expression level ratio: YLR120C (YAP3) (50 micro gram/ml): 3.623
- K-50/CK expression level ratio: YLR153C (ACS2) (50 micro gram/ml): 3.379
- K-50/CK expression level ratio: YLR249W (YEF3) (50 micro gram/ml): 3.145
- K-50/CK expression level ratio: YMR019W (STB4) (50 micro gram/ml): 3.441
- K-50/CK expression level ratio: YMR037C (MSN2) (50 micro gram/ml): 6.424
- K-50/CK expression level ratio: YMR047C (NUP116) (50 micro gram/ml): 3.17
- K-50/CK expression level ratio: YMR080C (NAM7) (50 micro gram/ml): 2.183
- K-50/CK expression level ratio: YMR146C (TIF34) (50 micro gram/ml): 0.2248
- K-50/CK expression level ratio: YNR019W (ARE2) (50 micro gram/ml): 1.791
- K-50/CK expression level ratio: YOL067C (RTG1) (50 micro gram/ml): 10.03
- K-50/CK expression level ratio: YOR127W (RGA1) (50 micro gram/ml): 2.532
- K-50/CK expression level ratio: YOR237W (HES1) (50 micro gram/ml): 1418
- K-50/CK expression level ratio: YOR337W (TEA1) (50 micro gram/ml): 2.979
- K-50/CK expression level ratio: YPL028W (ERG10) (50 micro gram/ml): 2.019
- K-50/CK expression level ratio: YPL119C (DBP1) (50 micro gram/ml): 3.246
- K-50/CK expression level ratio: YPL226W (50 micro gram/ml): 2.889
- K-50/CK expression level ratio: YPL237W (SUI3) (50 micro gram/ml): 2.563
- K-50/CK expression level ratio: YPR080W (TEF1) (50 micro gram/ml): 2.212
- K-100/CK expression level ratio: YAL001C (TFC3) (100 micro gram/ml): 1.192
- K-100/CK expression level ratio: YAL013W (DEP1) (100 micro gram/ml): 6.425
- K-100/CK expression level ratio: YAL048C (100 micro gram/ml): 4.221
- K-100/CK expression level ratio: YAR044W (OSH1) (100 micro gram/ml): 3.884
- K-100/CK expression level ratio: YBL005W (PDR3) (100 micro gram/ml): 6.083
- K-100/CK expression level ratio: YBL008W (HIR1) (100 micro gram/ml): 2.887
- K-100/CK expression level ratio: YBR119W (MUD1) (100 micro gram/ml): 1.399
- K-100/CK expression level ratio: YBR289W (SNF5) (100 micro gram/ml): 3.039
- K-100/CK expression level ratio: YCL037C (SRO9) (100 micro gram/ml): 2.394
- K-100/CK expression level ratio: YCR048W (ARE1) (100 micro gram/ml): 10.53
- K-100/CK expression level ratio: YCR084C (TUP1) (100 micro gram/ml): 3.272
- K-100/CK expression level ratio: YDL088C (ASM4) (100 micro gram/ml): 3.321
- K-100/CK expression level ratio: YDR052C (DBF4) (100 micro gram/ml): 1.583
- K-100/CK expression level ratio: YDR088C (SLU7) (100 micro gram/ml): 2.688
- K-100/CK expression level ratio: YDR211W (GCD6) (100 micro gram/ml): 1.824
- K-100/CK expression level ratio: YDR213W (100 micro gram/ml): 58.36
- K-100/CK expression level ratio: YDR253C (MET32) (100 micro gram/ml): 0.3279
- K-100/CK expression level ratio: YDR264C (AKR1) (100 micro gram/ml): 2.752
- K-100/CK expression level ratio: YDR389W (SAC7) (100 micro gram/ml): 4.314
- K-100/CK expression level ratio: YDR422C (SIP1) (100 micro gram/ml): 2.084
- K-100/CK expression level ratio: YFL054C (100 micro gram/ml): 0.6137
- K-100/CK expression level ratio: YFR009W (GCN20) (100 micro gram/ml): 2.161
- K-100/CK expression level ratio: YFR034C (PHO4) (100 micro gram/ml): 20.84
- K-100/CK expression level ratio: YGL001C (100 micro gram/ml): 1.985
- K-100/CK expression level ratio: YGL014W (100 micro gram/ml): 3.638
- K-100/CK expression level ratio: YGL071W (RCS1) (100 micro gram/ml): 4.531
- K-100/CK expression level ratio: YGL112C (TAF60) (100 micro gram/ml): 2.189
- K-100/CK expression level ratio: YGL192W (IME4) (100 micro gram/ml): 6.478
- K-100/CK expression level ratio: YGR177C (ATF2) (100 micro gram/ml): 12.56
- K-100/CK expression level ratio: YGR270W (YTA7) (100 micro gram/ml): 1.946
- K-100/CK expression level ratio: YHL027W (RIM101) (100 micro gram/ml): 2.593
- K-100/CK expression level ratio: YIL084C (SDS3) (100 micro gram/ml): 6.907
- K-100/CK expression level ratio: YIR017C (MET28) (100 micro gram/ml): 0.3009
- K-100/CK expression level ratio: YJL127C (SPT10) (100 micro gram/ml): 10.1
- K-100/CK expression level ratio: YJR017C (ESS1) (100 micro gram/ml): 3.221
- K-100/CK expression level ratio: YJR019C (TES1) (100 micro gram/ml): 2.072
- K-100/CK expression level ratio: YKR034W (DAL80) (100 micro gram/ml): 7.284
- K-100/CK expression level ratio: YLR098C (CHA4) (100 micro gram/ml): 5.587
- K-100/CK expression level ratio: YLR120C (YAP3) (100 micro gram/ml): 4.43
- K-100/CK expression level ratio: YLR153C (ACS2) (100 micro gram/ml): 3.129
- K-100/CK expression level ratio: YLR249W (YEF3) (100 micro gram/ml): 2.632
- K-100/CK expression level ratio: YMR019W (STB4) (100 micro gram/ml): 3.398
- K-100/CK expression level ratio: YMR037C (MSN2) (100 micro gram/ml): 7.661
- K-100/CK expression level ratio: YMR047C (NUP116) (100 micro gram/ml): 4.774
- K-100/CK expression level ratio: YMR080C (NAM7) (100 micro gram/ml): 2.171
- K-100/CK expression level ratio: YMR146C (TIF34) (100 micro gram/ml): 0.7194
- K-100/CK expression level ratio: YNR019W (ARE2) (100 micro gram/ml): 2.854
- K-100/CK expression level ratio: YOL067C (RTG1) (100 micro gram/ml): 27.37
- K-100/CK expression level ratio: YOR127W (RGA1) (100 micro gram/ml): 2.57
- K-100/CK expression level ratio: YOR139C (SFL1) (100 micro gram/ml): 11.76
- K-100/CK expression level ratio: YOR237W (HES1) (100 micro gram/ml): 1358
- K-100/CK expression level ratio: YOR337W (TEA1) (100 micro gram/ml): 4.823
- K-100/CK expression level ratio: YPL028W (ERG10) (100 micro gram/ml): 1.699
- K-100/CK expression level ratio: YPL119C (DBP1) (100 micro gram/ml): 2.197
- K-100/CK expression level ratio: YPL226W (100 micro gram/ml): 2.556
- K-100/CK expression level ratio: YPL237W (SUI3) (100 micro gram/ml): 2.548
- K-100/CK expression level ratio: YPR080W (TEF1) (100 micro gram/ml): 1.859
